The assay addresses T1, XIAP BIR3 domain (Homo sapiens, UniProt P98170).
T1 construct: fluorescent probe 4 and the XIAP BIR3 domain (Sino Biological, Beijing, China) were used for all measurements; purchased Sino Biological, Beijing, China
The experiment in a line: Fluorescence polarization inhibition (competition) assay. The assay is classed as binding. The following applies: for inhibition at 50 µM: 0.5 h; for interaction with the XIAP BIR3 domain (in words): fluorescence polarization. Here is the method: The fluorescence polarization assay was performed at r.t. in Corning 384-well black, polystyrene flat bottom plates (Corning, NY, USA) on a Synergy H4 Hybrid Reader (BioTek, Bad Friedrichshall, Germany). For fluorescence polarization measurements, (milipolarization units, mP) 484/20 nm excitation and 528/20 nm emission filters were selected. Phosphate buffer (pH 7.5) supplemented with γ-globulin (100 µg/mL) and NaN3 (0.02% w/v), fluorescent probe 4 and the XIAP BIR3 domain (Sino Biological, Beijing, China) were used for all measurements. All experiments were performed in duplicate. The obtained fluorescence polarization assay data were analyzed with Prism 5.0 Software (GraphPad Software, San Diego, ca.).
After a 15 min incubation at r.t., fluorescent probe 4 (2 nM) was added. The values were measured 30 min after the moment the probe was added. The assay was performed in phosphate buffer with a final DMSO concentration of 1.4% (v/v). […] In order to evaluate the quality and precision of the performed screening assay, we determined the Z´ factor as described by Zhang et al.. The obtained fluorescence polarization values were used to determine the percent inhibition, which was plotted as a function of the protein concentration. The EC50 and Ki values were calculated with GraphPad software (log(agonist) vs. response (variable slope) model) in combination with the web tool developed by Nikolovska-Coleska et al..
Fluorescence polarization inhibition assay and data analysis for 41m and 42m compounds was performed as described in the Material and Methods section of the manuscript. Briefly, 50 nM solution of the BIR3 XIAP protein in polarization buffer was added into phosphoroorganic compound solution (from 50 μM to 0.0537 nM). After 15 min incubation at r.t. the fluorescent probe 4 (2 nM) was added.
The values were read after 30 minutes from the moment the probe was added. The obtained fluorescence polarization values were used to determine the percentage of inhibition which was plotted as a function of the protein concentration (Supplementary Figure S4).
(1 picture or pasted object on this page, not shown here)
Background: Fluorescence polarisation rises when a labelled molecule tumbles more slowly, as on binding a larger partner.

[1] abbreviates: antagonist 50 µM, inhibition of protein-probe interaction.
Where [2] appears, read: XIAP BIR3 50 nM, fluorescent probe 4 2 nM.
The mark [3] stands for this setting: XIAP BIR3 50 nM, fluorescent probe 4 2 nM, read-out: EC50.
Setting [4] is: XIAP BIR3 50 nM, fluorescent probe 4 2 nM, read-out: log EC50 (converted).

Where two headings read alike, the source gives them in different places. Square brackets hold non-standard residues; d marks the D form. Ends that are not written are not given here. Chg = N[C@H](C(=O)O)C1CCCCC1; NMeA = CN[C@@H](C)C(=O)O

23 molecules from paper PMC7497679, “Structure-based design, synthesis, and evaluation of the biological activity of novel phosphoroorganic small molecule IAP antagonists” (Investigational New Drugs, 2020) can be followed below.

T1 sequence (P98170 252-356 limits assumed): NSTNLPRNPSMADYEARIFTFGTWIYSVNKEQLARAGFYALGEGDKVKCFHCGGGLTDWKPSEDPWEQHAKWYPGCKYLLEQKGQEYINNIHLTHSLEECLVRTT

Consider `CN[C@@H](C)C(=O)N[C@H](C(=O)N1CCC[C@H]1C(=O)NCP(=O)(c1ccccc1)c1ccccc1)C(C)C` [Compound 11], for which the inhibition (in general, the drop in the measured response relative to a control, in per cent) at 50 µM under setting [1] came to 63.6%. Under setting [2], the Ki (commonly a dissociation constant, usually derived from enzyme kinetics or from competition with a known ligand) came to 14.5 µM. Further, the EC50 (as a rule, the midpoint of the concentration-response curve) under setting [3] stood at 29.3 µM and the EC50 under setting [4] is 29.4 µM.
As for `CN[C@@H](C)C(=O)N[C@H](C(=O)N1CCC[C@H]1C(=O)NCP(=O)(c1ccc(C)cc1)c1ccc(C)cc1)C1CCCCC1` [Compound 16, (S)-1-((S)-2-cyclohexyl-2-((S)-2-(methylamino)propanamido)acetyl)-N-((di-p-tolylphosphoryl)methyl)pyrrolidine-2-carboxamide], under setting [1], the inhibition at 50 µM was 57%. In addition, the Ki under setting [2] turned out to be 20 µM. For the same molecule, the EC50 under setting [3] was 40.3 µM and the EC50 under setting [4] was 40.4 µM.
Regarding `CN[C@@H](C)C(=O)N[C@H](C(=O)N1CCC[C@H]1C(=O)NC(CCSC)P(=O)(Oc1ccccc1)Oc1ccccc1)C1CCCCC1` (stereo partly drawn) [Compound 40, diphenyl (1-((S)-1-((S)-2-cyclohexyl-2-((S)-2-(methylamino)propanamido)acetyl)pyrrolidine-2-carboxamido)-3-(methylthio)propyl)phosphonate], under setting [1], the inhibition at 50 µM was 73.8%. For the same molecule, the Ki under setting [2] came to 13 µM. Further, the EC50 under setting [3] amounted to 26.3 µM and the EC50 under setting [4] was 26.3 µM.
Regarding `CN[C@@H](C)C(=O)N[C@H](C(=O)N1CCC[C@H]1C(=O)NC(C)P(=O)(Oc1ccc(C(C)(C)C)cc1)Oc1ccc(C(C)(C)C)cc1)C1CCCCC1` (stereo partly drawn) [Compound 28, bis(4-(tert-butyl)phenyl) (1-((S)-1-((S)-2-cyclohexyl-2-((S)-2-(methylamino)propanamido)acetyl)pyrrolidine-2-carboxamido)ethyl)phosphonate], the inhibition at 50 µM under setting [1] came to 77.3%. Further, the Ki under setting [2] amounted to 13.3 µM. Also, the EC50 under setting [3] was 26.8 µM and the EC50 under setting [4] is 26.7 µM.
With `CCC(C)C(NC(=O)[C@@H]1CCCN1C(=O)[C@@H](NC(=O)[C@H](C)NC)C1CCCCC1)P(=O)(Oc1ccccc1)Oc1ccccc1` (some centres unmarked) [Compound 36], the inhibition at 50 µM under setting [1] is 81.4%. Besides, the Ki under setting [2] was 8.05 µM. Moreover, the EC50 is 16.2 µM under setting [3] and 16.3 µM under setting [4].
Turning to `CN[C@@H](C)C(=O)N[C@H](C(=O)N1CCC[C@H]1C(=O)NCP(=O)(C1CCCCC1)C1CCCCC1)C1CCCCC1` [Compound 10], the inhibition at 50 µM under setting [1] is around 25%.
Regarding `CN[C@@H](C)C(=O)N[C@H](C(=O)N1CCC[C@H]1C(=O)NC(C)P(=O)(Oc1ccc(C(C)C)cc1)Oc1ccc(C(C)C)cc1)C1CCCCC1` (some centres unmarked) [Compound 26], the inhibition at 50 µM under setting [1] is 85.8%. For the same molecule, the Ki under setting [2] stood at 9.84 µM. In addition, the EC50 was 19.8 µM under setting [3] and 19.8 µM under setting [4].
For `CCc1ccc(OP(=O)(Oc2ccc(CC)cc2)C(C)NC(=O)[C@@H]2CCCN2C(=O)[C@@H](NC(=O)[C@H](C)NC)C2CCCCC2)cc1` (some centres unmarked) [Compound 24], under setting [1], the inhibition at 50 µM amounted to 74.1%. Moreover, the Ki under setting [2] came to 10.2 µM. The EC50 is 20.5 µM under setting [3] and 20.6 µM under setting [4].
For `CN[C@@H](C)C(=O)N[C@H](C(=O)N1CCC[C@H]1C(=O)NCP(=O)(c1ccccc1)c1ccccc1)C1CCCCC1` [Compound 12], under setting [2], the Ki came to 13 µM and the “log EC50” value was found to be 1.420 ± 0.051 µM. Further, the EC50 under setting [3] came to 26.3 µM. The “% Inh (50 µM)” value under setting [1] is listed as 67.1%.
Consider [NMeA]-Val-Pro-OH [Compound 1], for which the “interaction with the XIAP BIR3 domain (in words)” value is “did not interact with the XIAP BIR3 domain at a significant level”.
Regarding `CN[C@@H](C)C(=O)N[C@H](C(=O)N1CCC[C@H]1C(=O)NC(CCSC)P(=O)(Oc1ccccc1)Oc1ccccc1)C(C)C` (some centres unmarked) [Compound 39], under setting [1], the inhibition at 50 µM is 65.8%. In addition, under setting [2], the Ki was 13 µM. The EC50 under setting [3] was 26.2 µM and the EC50 under setting [4] is 26.2 µM.
Regarding `CN[C@@H](C)C(=O)N[C@H](C(=O)N1CCC[C@H]1C(=O)NCP(=O)(c1ccccc1C)c1ccccc1C)C(C)C` [Compound 18, (S)-N-((di-o-tolylphosphoryl)methyl)-1-((S)-3-methyl-2-((S)-2-(methylamino)propanamido)butanoyl)pyrrolidine-2-carboxamide], the inhibition at 50 µM under setting [1] was found to be 62%. Moreover, the Ki under setting [2] stood at 14.5 µM. Further, the EC50 is 29.3 µM under setting [3] and 29.2 µM under setting [4].
In the same order, the values of `CCC(C)C(NC(=O)[C@@H]1CCCN1C(=O)[C@@H](NC(=O)[C@H](C)NC)C(C)C)P(=O)(Oc1ccccc1)Oc1ccccc1` (some centres unmarked) [Compound 35] are 77.4%, 8.84 µM, 17.8 µM and 17.8 µM.
As for `CN[C@@H](C)C(=O)N[C@H](C(=O)N1CCC[C@H]1C(=O)NCP(=O)(C(C)(C)C)C(C)(C)C)C1CCCCC1` [Compound 6], the inhibition at 50 µM under setting [1] came to 72%. Besides, the Ki under setting [2] was found to be 9.87 µM. Further, the EC50 under setting [3] was found to be 19.9 µM and the EC50 under setting [4] was 19.9 µM.
Regarding `CN[C@@H](C)C(=O)N[C@H](C(=O)N1CCC[C@H]1C(=O)NC(C)P(=O)(c1ccc(C)cc1)c1ccc(C)cc1)C1CCCCC1` (stereo partly drawn) [Compound 17, (2S)-1-((S)-2-cyclohexyl-2-((S)-2-(methylamino)propanamido)acetyl)-N-(1-(di-p-tolylphosphoryl)ethyl)pyrrolidine-2-carboxamide], the inhibition at 50 µM under setting [1] is 74%. The Ki under setting [2] turned out to be 9.55 µM. Besides, the EC50 was 19.3 µM under setting [3] and 19.3 µM under setting [4].
In the case of [NMeA]-[Chg]-Pro-OH [Compound 2], the “interaction with the XIAP BIR3 domain (in words)” value is recorded as “did not interact with the XIAP BIR3 domain at a significant level”.
On to `CN[C@@H](C)C(=O)N[C@H](C(=O)N1CCC[C@H]1C(=O)NCP(=O)(c1cc(C)cc(C)c1)c1cc(C)cc(C)c1)C(C)C` [Compound 20, (S)-N-((bis(3,5-dimethylphenyl)phosphoryl)methyl)-1-((S)-3-methyl-2-((S)-2-(methylamino)propanamido)butanoyl)pyrrolidine-2-carboxamide], for which the inhibition at 50 µM under setting [1] came out at 50%. For the same molecule, the Ki under setting [2] is 23.8 µM. Further, the EC50 reads like this: under setting [3], 48 µM; under setting [4], 48 µM.
As to `CN[C@@H](C)C(=O)N[C@H](C(=O)N1CCC[C@H]1C(=O)NC(C)P(=O)(Oc1ccc(C(C)C)cc1)Oc1ccc(C(C)C)cc1)C(C)C` (some centres unmarked) [Compound 25], under setting [1], the inhibition at 50 µM was found to be 81.8%. For the same molecule, the Ki under setting [2] was 10.9 µM. Moreover, the EC50 runs as follows: under setting [3], 22 µM; under setting [4], 22 µM.
`CN[C@@H](C)C(=O)N[C@H](C(=O)N1CCC[C@H]1C(=O)NC(C)P(=O)(c1cc(C)cc(C)c1)c1cc(C)cc(C)c1)C(C)C` (some centres unmarked) [Compound 22]: the inhibition at 50 µM under setting [1] stood at 59.2%. The Ki under setting [2] amounted to 16.1 µM. The 50% effective concentration (EC50) by setting is: under setting [3], 32.5 µM; under setting [4], 32.4 µM.
On to `CN[C@@H](C)C(=O)N[C@H](C(=O)N1CCC[C@H]1C(=O)NC(C)P(=O)(Oc1ccccc1)Oc1ccccc1)C(C)C` (stereo partly drawn) [Compound 29, diphenyl (1-((S)-1-((S)-3-methyl-2-((S)-2-(methylamino)propanamido)butanoyl)pyrrolidine-2-carboxamido)ethyl)phosphonate], for which the inhibition at 50 µM under setting [1] is 62.1%. Moreover, the inhibitory constant (Ki) under setting [2] was determined as 15.8 µM. Further, the EC50 was 31.9 µM under setting [3] and 31.8 µM under setting [4].
With `CCC(NC(=O)[C@@H]1CCCN1C(=O)[C@@H](NC(=O)[C@H](C)NC)C1CCCCC1)P(=O)(Oc1ccccc1)Oc1ccccc1` (stereo partly drawn) [Compound 32, diphenyl (1-((S)-1-((S)-2-cyclohexyl-2-((S)-2-(methylamino)propanamido)acetyl)pyrrolidine-2-carboxamido)propyl)phosphonate], under setting [1], the inhibition at 50 µM is 71%. Under setting [2], the Ki is 11.9 µM. For the same molecule, the EC50 under setting [3] turned out to be 24 µM and the EC50 under setting [4] was 24 µM.
`CN[C@@H](C)C(=O)N[C@H](C(=O)N1CCC[C@H]1C(=O)NC(CC(C)C)P(=O)(Oc1ccccc1)Oc1ccccc1)C(C)C` (some centres unmarked) [Compound 37]: under setting [1], the inhibition at 50 µM came to 67.4%. The Ki under setting [2] was 14 µM. The EC50 reads like this: under setting [3], 28.1 µM; under setting [4], 28.1 µM.
For `CN[C@@H](C)C(=O)N[C@H](C(=O)N1CCC[C@H]1C(=O)NC(CC(C)C)P(=O)(Oc1ccccc1)Oc1ccccc1)C1CCCCC1` (some centres unmarked) [Compound 38], the inhibition at 50 µM under setting [1] was 84.2%. In addition, the Ki under setting [2] came out at 5.25 µM. Further, the EC50 under setting [3] is 10.6 µM and the EC50 under setting [4] is 10.6 µM.
